In article PMC10119279 (Scientific Reports, 2023):
Where “and” joins values, the source holds several entries; their conditions need not be identical. Equal entries are not always repeated. Where two headings read alike, the source gives them in different places.

Experiments:
[1] = In vivo pharmacokinetic experiment: plasma and urine balenine after acute oral ingestion; parameters: species or system human; settings: for Urinary balenine excretion: urine up to 24 h; for Cmax: read-out: Cmax (peak plasma concentration)
Description: Six subjects (3 males and 3 females) participated in this PK study in which three increasing doses were tested. For the third dose, […] was replaced, due to pregnancy, by […] with similar CN1 activity. […] This means that half of the dose was administered as 5 mg/kg (weight-relative part) and the other half was an absolute dose based on the mean weight of the subjects of the third test day (341 mg; fixed part).
The day before a test day, subjects were asked to refrain from meat and fish. Upon arrival, a catheter was inserted in an antecubital vein and a fasted ethylenediaminetetraacetic acid (EDTA, 4 mL) and serum sample (3.5 mL, to determine CN1 activity) were collected. […] The following 2 h, every 30 min an EDTA blood sample was taken. Then after 3, 4, 5, 8 and 24 h, another sample was withdrawn. Urine was collected after 150 min, 5, 8 and 24 h. The subjects arrived in the lab and remained fasted until 2 h after ingesting the supplement. Subjects remained in the lab until the post 8 h blood sample, and returned the following morning for the post 24 h sample. Throughout the test day, food intake was standardized (lacto-ovo-vegetarian diet) ensuring minimal HCD intake for 24 h following supplement. Figure 5 gives a schematic overview of a test day.
Plasma samples were collected in pre-cooled (4 °C) EDTA tubes. Upon withdrawal, plasma was immediately deproteinized with 1:11 SSA, centrifuged (5 min, 16 000 g) and stored at − 20 °C.
Extraction of plasma and urine for UHPLC-MS/MS analysis went as follows: 150 µL of deproteinized plasma/urine (not deproteinized) was added to 215 µL of acetonitrile containing 1% formic acid, 10 µL of internal standard (IS) (carnosine-D4) and 25 µL ultrapure water or standard (calibration curve and quality control samples (QC)). Then samples were vortexed and centrifuged (15 min, 4 °C, 15,000 g). Supernatant was used for further analyses.
In the in vitro study, supernatant was diluted 40 times before injection. In the PK study, plasma samples from the 10 mg/kg condition and baseline urine samples were diluted 100 times. All other urine samples were diluted 1000 times. Dilutions were conducted with acetonitrile containing 1% formic acid.
Analyses were performed on a UHPLC-MS/MS platform consisting of an Acquity H-Class Quaternary Solvent Manager and Flow-Through-Needle Sample Manager with temperature controlled tray (8 °C) and column oven (60 °C). Chromatographic separation was achieved on an Acquity UPLC BEH amide column (2.1 mm × 100 mm, 1.7 µm) with an Acquity amide Vanguard pre-column. The system operated at a flow rate of 0.3 mL/min with solvent A (ultrapure water), solvent B (acetonitrile) and solvent C (200 mM ammonium formate with 0.04% ammonia) with the gradient shown in Table 2. The UPLC column effluent was interfaced to a Xevo TQ-XS® MS/MS system (plasma samples) and Xevo TQ-S® (urine samples), equipped with an electrospray ionization (ESI) probe operating in positive ion mode. Further MS settings included desolvation gas flow rate (15 L/h), desolvation temperature (600 °C), cone gas flow rate (800 L/h), source temperature (150 °C) and capillary voltage (0.75 kV). Transition details are depicted in Table 3. […] The detector operated in multiple reacting monitoring mode, scanning the two most intense transitions of the HCDs. Masslynx software 4.2 was used for instrument control and data extraction. Hardware and software were purchased from Waters (Milford, MA, USA).
CN1 activity was quantified by fluorometric determination of histidine following carnosine addition (based on Teufel et al., 2003).

[2] = system: Sprague Dawley rats
Description: Following treatment, a 2 week observation period with twice daily examination for morbidity and mortality was performed.

[3] = clinical; settings: both, human, plasma and urine, oral
Description: Plasma concentrations were described using a 1-compartmental model, with sequential zero- and first-order absorption and linear elimination. Cumulative urine concentrations were fitted simultaneously with plasma concentrations. Inter-occasion variability was also implemented and assumed to follow a lognormal distribution. Residual variability was described using a combined error model, consisting of an additive and a proportional component. The following covariates were tested: sex, age, weight, CN1 activity and dose. Model evaluation was done based on standard goodness-of-fit metrics (objective function value, standard errors) and plots.

[4] = system: serum carnosinase (CN1) enzyme; settings: cited from earlier work

Cn1cnc(CC(NC(=O)CCN)C(=O)O)c1 [balenine, β-alanyl-N(τ)-methyl-L-histidine]
Urinary excretion as % of the ingested dose ([1]; 1 mg/kg oral): 27.3% | Urinary balenine excretion ([1]; 1 mg/kg oral): 19.3 ± 13.1 mg | Time plasma balenine remained significantly increased ([1]; 4 mg/kg oral): up to 3 h | Urinary excretion as % of the ingested dose ([1]; 4 mg/kg oral): 29.7% | Urinary balenine excretion ([1]; 4 mg/kg oral): 82.0 ± 40.5 mg | Cmax of balenine relative to anserine at the same dose ([1]; 10 mg/kg oral): 25.9 fold | Plasma iAUC of balenine relative to anserine ([1]; 10 mg/kg oral): 136 fold | Time plasma balenine remained significantly increased ([1]; 10 mg/kg oral): up to 8 h | Urinary excretion as % of the ingested dose ([1]; 10 mg/kg oral): 25.2% | Cmax ([1]; 10 mg/kg oral (fragmented dose), human, n = 6): 28 µM | Plasma iAUC ([1]; 10 mg/kg oral, human): 8960 µM·min | Urinary balenine excretion ([1]; 10 mg/kg oral): 176 ± 95.9 mg | Average excreted percentage of the dose in urine (intact) ([1]; average over doses, n = 6): 27.4% | Cmax ([1]; both sexes, human, plasma, po, 1 mg/kg, 1 mg/kg oral, human, n = 6): 1.6 ± 0.5 µM | Cmax ([1]; both sexes, human, plasma, po, 4 mg/kg, 4 mg/kg oral, human, n = 6): 7.1 ± 1.2 µM | Cmax ([1]; both sexes, human, plasma, po, 10 mg/kg, 10 mg/kg oral (fragmented dose), human, n = 6): 28.2 ± 7.4 µM | Cmax ratio 4 mg/kg vs 1 mg/kg ([1]; oral, human): 4.4 times | Cmax ratio 10 mg/kg vs 1 mg/kg ([1]; oral, human): 17.6 fold and 18 fold | Cmax ratio 10 mg/kg vs 4 mg/kg ([1]; oral, human): 4 times | Urinary excretion after 1 mg/kg: times lower than after 4 mg/kg ([1]; oral, human): 4 times | iAUC ratio 4 mg/kg vs 1 mg/kg ([1]; oral, human): 3.8 times | iAUC ratio 10 mg/kg vs 1 mg/kg ([1]; oral, human): 14.2 fold | iAUC ratio 10 mg/kg vs 4 mg/kg ([1]; oral, human): 3.7 times | Pathological changes, morbidity and mortality ([2]; female Sprague Dawley rats, acute increasing doses up to 2000 mg/kg, 2 week observation): No pathological changes were observed in any animal | Dose concluded safe ([2]; female, Sprague Dawley, rat, in vivo, 2 weeks): 2000 mg/kg | Vd [3]: 126 L | clearance [3]: 327 mL/min | half-life [3]: 12 min | Substrate quality for the CN1 enzyme ([4]; ref 15-17): poor | Rate of hydrolysis relative to carnosine ([4]; ref 15): 8% | Rate of hydrolysis relative to carnosine ([4]; ref 16): 3.81% | Hydrolysis rate as % of carnosine's ([4]; several in vitro experiments): 5–20%
